Data: patent US9029325B2, “Amylin analogues and pharmaceutical compositions thereof” (Novo Nordisk A/S, priority 2011, dated 2015)
Starred links: 1 amine or outer side, 2 acyl side, 3 side chain; linkers in the order of their positions; H or OH if unused. Positions of bridges follow the written chain, without caps; N, C: chain ends. Residues, ends and D or L forms follow the SMILES beside them. *: point of attachment. C20 diacid = O=C(O)CCCCCCCCCCCCCCCCCCC(=O)*; γGlu = O=C(O)[C@H](CCC(=O)[*:2])N[*:1]

Test: Assay (III) ThT fibrillation assay for physical stability
Format: physicochemical
Details: for Th T pH 4.0 lag time (h): 37° C., orbital shaking 960 rpm; for ThT pH 4.0 lag time: Table 9
Text: Low physical stability of a polypeptide may lead to amyloid fibril formation, which is observed as well-ordered, thread-like macromolecular structures in the sample eventually resulting in gel formation. This has traditionally been measured by visual inspection of the sample. However, that kind of measurement is very subjective and depending on the observer. Therefore, the application of a small molecule indicator probe is much more advantageous. Thioflavin T (ThT) is such a probe and has a distinct fluorescence signature when binding to fibrils [Naiki et al. (1989) Anal. Biochem. 177, 244-249; LeVine (1999) Methods. Enzymol. […], 274-284].
The time course for fibril formation can be described by a sigmoidal curve with the following expression [Nielsen et al. (2001) Biochemistry 40, 6036-6046]:
[formula] Here, F is the ThT fluorescence at the time t. The constant t0 is the time needed to reach 50% of maximum fluorescence. The two important parameters describing fibril formation are the lag-time calculated by t0−2T and the apparent rate constant kapp=1/τ.
Few of those intermediates nucleate to form a template onto which further intermediates may assembly and the fibrillation proceeds. The lag-time corresponds to the interval in which the critical mass of nucleus is built up and the apparent rate constant is the rate with which the fibril itself is formed.
Samples were prepared freshly before each assay. Each sample composition is described in each example. The pH of the sample was adjusted to the desired value using appropriate amounts of concentrated NaOH and HClO4 or HCl. Thioflavin T was added to the samples from a stock solution in H2O to a final concentration of 1 μM.
Sample aliquots of 200 μl were placed in a 96 well microtiter plate (Packard OptiPlate™-96, white polystyrene). Usually, four or eight replica of each sample (corresponding to one test condition) were placed in one column of wells. The plate was sealed with Scotch Pad (Qiagen).
Incubation at given temperature, shaking and measurement of the ThT fluorescence emission were done in a Fluoroskan Ascent FL fluorescence platereader or Varioskan platereader (Thermo Labsystems). The temperature was adjusted to 37° C. The orbital shaking was adjusted to 960 rpm with an amplitude of 1 mm in all the presented data. Fluorescence measurement was done using excitation through a 444 nm filter and measurement of emission through a 485 nm filter.
Each run was initiated by incubating the plate at the assay temperature for 10 min. The plate was measured every 20 minutes for a desired period of time. Between each measurement, the plate was shaken and heated as described.
The measurement points were saved in Microsoft Excel format for further processing and curve drawing and fitting was performed using GraphPad Prism. The background emission from ThT in the absence of fibrils was negligible. The data points are typically a mean of four or eight samples and shown with standard deviation error bars. Only data obtained in the same experiment (i.e. samples on the same plate) are presented in the same graph ensuring a relative measure of fibrillation […].
The data set may be fitted to Eq. (1). However, since full sigmodial curves in this case are not always achieved during the measurement time, the degree of fibrillation is expressed as ThT fluorescence tabulated as the mean of the samples and shown with the standard deviation at various time points.
The polypeptide concentration in each of the tested formulations were measured both before application in the ThT fibrillation assay (“Initial”) and after completion of the ThT fibrillation (“After ThT assay”). Concentrations were determined by reverse HPLC methods using a pramlintide standard as a reference. Before measurement after completion 150 μl was collected from each of the replica and transferred to an Eppendorf tube. These were centrifuged at 30000 G for 40 mins. […]

SMILES	Th T pH 4.0 lag time (h)	ThT pH 4.0 lag time
CC[C@H](C)[C@H](NC(=O)[C@@H]1CCCN1C(=O)CNC(=O)[C@H](Cc1ccccc1)NC(=O)[C@H](CC(N)=O)NC(=O)[C@H](CCC(N)=O)NC(=O)[C@H](CO)NC(=O)[C@H](CO)NC(=O)[C@H](Cc1c[nH]cn1)NC(=O)[C@H](CCCNC(=N)N)NC(=O)[C@H](CC(C)C)NC(=O)[C@H](Cc1ccccc1)NC(=O)[C@H](CCC(=O)O)NC(=O)[C@H](C)NC(=O)[C@H](CC(C)C)NC(=O)[C@H](CCCNC(=N)N)NC(=O)[C@H](CCC(N)=O)NC(=O)[C@@H](NC(=O)[C@H](C)NC(=O)[C@@H]1CSSC[C@H](NC(=O)[C@H](CCC(=O)O)NC(=O)[C@H](CCCNC(=N)N)NC(=O)[C@H](CCC(=O)O)NC(=O)CC[C@H](NC(=O)CCCCCCCCCCCCCCCCCCC(=O)O)C(=O)O)C(=O)N[C@@H](CC(N)=O)C(=O)N[C@@H]([C@@H](C)O)C(=O)N[C@@H](C)C(=O)N[C@@H]([C@@H](C)O)C(=O)N1)[C@@H](C)O)C(=O)N[C@@H](CC(C)C)C(=O)N1CCC[C@H]1C(=O)N1CCC[C@H]1C(=O)N[C@H](C(=O)N[C@@H](CCC(N)=O)C(=O)N[C@H](C(=O)NCC(=O)N[C@@H](CO)C(=O)N[C@@H](CCC(N)=O)C(=O)N[C@H](C(=O)N1CCC[C@H]1C(N)=O)[C@@H](C)O)C(C)C)[C@@H](C)O [Example 163, N-alpha-[(S)-4-Carboxy-4-(19-carboxynonadecanoylamino)butyryl]-Glu-Arg-[Glu1, Glu14, Arg17, Gln21, Gln31, Gln35, Pro37]-pramlintide] ({C20 diacid-γGlu}-ERECNTATCATQRLAEFLRHSSQNFGPILPPTQVGSQTP-NH2; disulfide 4-9)	>45 h	>45 hr
CC[C@H](C)[C@H](NC(=O)[C@@H]1CCCN1C(=O)CNC(=O)[C@H](Cc1ccccc1)NC(=O)[C@H](CC(N)=O)NC(=O)[C@H](CC(N)=O)NC(=O)[C@H](CO)NC(=O)[C@H](CO)NC(=O)[C@H](Cc1c[nH]cn1)NC(=O)[C@H](CCCNC(=N)N)NC(=O)[C@H](CC(C)C)NC(=O)[C@H](Cc1ccccc1)NC(=O)[C@H](CCC(=O)O)NC(=O)[C@H](C)NC(=O)[C@H](CC(C)C)NC(=O)[C@H](CCCNC(=N)N)NC(=O)[C@H](CCC(N)=O)NC(=O)[C@@H](NC(=O)[C@H](C)NC(=O)[C@@H]1CSSC[C@H](NC(=O)[C@H](CCCNC(=N)N)NC(=O)[C@H](CCC(=O)O)NC(=O)CC[C@H](NC(=O)CCCCCCCCCCCCCCCCCCC(=O)O)C(=O)O)C(=O)N[C@@H](CC(N)=O)C(=O)N[C@@H]([C@@H](C)O)C(=O)N[C@@H](C)C(=O)N[C@@H]([C@@H](C)O)C(=O)N1)[C@@H](C)O)C(=O)N[C@@H](CC(C)C)C(=O)N1CCC[C@H]1C(=O)N1CCC[C@H]1C(=O)N[C@H](C(=O)N[C@@H](CC(N)=O)C(=O)N[C@H](C(=O)NCC(=O)N[C@@H](CO)C(=O)N[C@@H](CC(N)=O)C(=O)N[C@H](C(=O)N1CCC[C@H]1C(N)=O)[C@@H](C)O)C(C)C)[C@@H](C)O [Example 156, N-alpha-[(S)-4-Carboxy-4-(19-carboxynonadecanoylamino)butyryl]-Glu-[Arg1, Glu14, Arg17, Pro37]-pramlintide] ({C20 diacid-γGlu}-ERCNTATCATQRLAEFLRHSSNNFGPILPPTNVGSNTP-NH2; disulfide 3-8)	>45 h	–
CC[C@H](C)[C@H](NC(=O)[C@@H]1CCCN1C(=O)CNC(=O)[C@H](Cc1ccccc1)NC(=O)[C@H](CC(N)=O)NC(=O)[C@@H](NC(=O)[C@H](CO)NC(=O)[C@H](CO)NC(=O)[C@H](Cc1c[nH]cn1)NC(=O)[C@H](Cc1c[nH]cn1)NC(=O)[C@H](CC(C)C)NC(=O)[C@H](Cc1ccccc1)NC(=O)[C@H](CCC(=O)O)NC(=O)[C@H](C)NC(=O)[C@H](CC(C)C)NC(=O)[C@H](CCCNC(=N)N)NC(=O)[C@H](CCC(N)=O)NC(=O)[C@@H](NC(=O)[C@H](C)NC(=O)[C@@H]1CSSC[C@H](NC(=O)[C@H](CCCCN)NC(=O)CC[C@H](NC(=O)CCCCCCCCCCCCCCCCCCC(=O)O)C(=O)O)C(=O)N[C@@H](CC(N)=O)C(=O)N[C@@H]([C@@H](C)O)C(=O)N[C@@H](C)C(=O)N[C@@H]([C@@H](C)O)C(=O)N1)[C@@H](C)O)[C@@H](C)O)C(=O)N[C@@H](CC(C)C)C(=O)N1CCC[C@H]1C(=O)N1CCC[C@H]1C(=O)N[C@H](C(=O)N[C@@H](CC(N)=O)C(=O)N[C@H](C(=O)NCC(=O)N[C@@H](CO)C(=O)N[C@@H](CC(N)=O)C(=O)N[C@H](C(=O)N1CCC[C@H]1C(N)=O)[C@@H](C)O)C(C)C)[C@@H](C)O [Example 146, N-alpha-[(S)-4-Carboxy-4-(19-carboxynonadecanoylamino)butyryl]-[Glu14, His17, Thr21, Pro37]-pramlintide] ({C20 diacid-γGlu}-KCNTATCATQRLAEFLHHSSTNFGPILPPTNVGSNTP-NH2; disulfide 2-7 (inferred); C-terminus assumed)	>45 h	>45 hr
CC[C@H](C)[C@H](NC(=O)[C@@H]1CCCN1C(=O)CNC(=O)[C@H](Cc1ccccc1)NC(=O)[C@H](CC(N)=O)NC(=O)[C@H](CC(N)=O)NC(=O)[C@H](CO)NC(=O)[C@H](CO)NC(=O)[C@H](Cc1c[nH]cn1)NC(=O)[C@H](Cc1c[nH]cn1)NC(=O)[C@H](CC(C)C)NC(=O)[C@H](Cc1ccccc1)NC(=O)[C@H](CCC(=O)O)NC(=O)[C@H](C)NC(=O)[C@H](CC(C)C)NC(=O)[C@H](CCCNC(=N)N)NC(=O)[C@H](CCC(N)=O)NC(=O)[C@@H](NC(=O)[C@H](C)NC(=O)[C@@H]1CSSC[C@H](NC(=O)CNC(=O)CC[C@H](NC(=O)CCCCCCCCCCCCCCCCCCC(=O)O)C(=O)O)C(=O)N[C@@H](CC(N)=O)C(=O)N[C@@H]([C@@H](C)O)C(=O)N[C@@H](C)C(=O)N[C@@H]([C@@H](C)O)C(=O)N1)[C@@H](C)O)C(=O)N[C@@H](CC(C)C)C(=O)N1CCC[C@H]1C(=O)N1CCC[C@H]1C(=O)N[C@H](C(=O)N[C@@H](CC(N)=O)C(=O)N[C@H](C(=O)NCC(=O)N[C@@H](CO)C(=O)N[C@@H](CC(N)=O)C(=O)N[C@H](C(=O)N1CCC[C@H]1C(N)=O)[C@@H](C)O)C(C)C)[C@@H](C)O [Example 91, N-alpha-[(S)-4-Carboxy-4-(19-carboxynonadecanoylamino)butyryl]-[Gly1, Glu14, His17, Pro37]-pramlintide] ({C20 diacid-γGlu}-GCNTATCATQRLAEFLHHSSNNFGPILPPTNVGSNTP-NH2; disulfide 2-7)	29 h	–
CC[C@H](C)[C@H](NC(=O)[C@@H]1CCCN1C(=O)CNC(=O)[C@H](Cc1ccccc1)NC(=O)[C@H](CO)NC(=O)[C@H](CO)NC(=O)[C@H](CO)NC(=O)[C@H](CO)NC(=O)[C@H](CCCNC(=N)N)NC(=O)[C@@H](NC(=O)[C@H](CC(C)C)NC(=O)[C@H](Cc1ccccc1)NC(=O)[C@H](CCC(=O)O)NC(=O)[C@H](C)NC(=O)[C@H](CC(C)C)NC(=O)[C@H](CCCNC(=N)N)NC(=O)[C@H](CCC(N)=O)NC(=O)[C@@H](NC(=O)[C@H](C)NC(=O)[C@@H]1CSSC[C@H](NC(=O)[C@H](CCCCN)NC(=O)CC[C@H](NC(=O)CCCCCCCCCCCCCCCCCCC(=O)O)C(=O)O)C(=O)N[C@@H](CC(N)=O)C(=O)N[C@@H]([C@@H](C)O)C(=O)N[C@@H](C)C(=O)N[C@@H]([C@@H](C)O)C(=O)N1)[C@@H](C)O)C(C)C)C(=O)N[C@@H](CC(C)C)C(=O)N[C@@H](CO)C(=O)N[C@@H](CO)C(=O)N[C@H](C(=O)N[C@@H](CC(=O)O)C(=O)N[C@H](C(=O)NCC(=O)N[C@@H](CO)C(=O)N[C@@H](CC(=O)O)C(=O)N[C@H](C(=O)N1CCC[C@H]1C(N)=O)[C@@H](C)O)C(C)C)[C@@H](C)O [Example 170, N-alpha-[(S)-4-Carboxy-4-(19-carboxynonadecanoylamino)butyryl]-[Glu14, Arg18, Ser21, Ser22, Ser28, Ser29, Asp31, Asp35, Pro37]-pramlintide] ({C20 diacid-γGlu}-KCNTATCATQRLAEFLVRSSSSFGPILSSTDVGSDTP-NH2; disulfide 2-7 (inferred); C-terminus assumed)	>45 h	>45 hr
